Source: publication PMC13385394, “Cryo-EM Structure of the TRPC1/5 Heteromer Enables Design of Antidepressant and Anxiolytic Drug with Reduced Side Effects” (Nature Communications, 2026)
“And” between values parts separate entries of the source, which are not always exact repeats. Equal entries are not always repeated.

Key:
[1] = molecular target: T1, TRPC1/4 heteromer (Homo sapiens, UniProt P48995+Q9UBN4); assay: Whole-cell patch-clamp, inhibition of TRPC1/4 heteromer; assay type: cell-based; conditions: read-out: IC50, TRPC1/4 heteromers
T1 construct: expressed in transfected cells
T1 sequence (P48995 whole entry): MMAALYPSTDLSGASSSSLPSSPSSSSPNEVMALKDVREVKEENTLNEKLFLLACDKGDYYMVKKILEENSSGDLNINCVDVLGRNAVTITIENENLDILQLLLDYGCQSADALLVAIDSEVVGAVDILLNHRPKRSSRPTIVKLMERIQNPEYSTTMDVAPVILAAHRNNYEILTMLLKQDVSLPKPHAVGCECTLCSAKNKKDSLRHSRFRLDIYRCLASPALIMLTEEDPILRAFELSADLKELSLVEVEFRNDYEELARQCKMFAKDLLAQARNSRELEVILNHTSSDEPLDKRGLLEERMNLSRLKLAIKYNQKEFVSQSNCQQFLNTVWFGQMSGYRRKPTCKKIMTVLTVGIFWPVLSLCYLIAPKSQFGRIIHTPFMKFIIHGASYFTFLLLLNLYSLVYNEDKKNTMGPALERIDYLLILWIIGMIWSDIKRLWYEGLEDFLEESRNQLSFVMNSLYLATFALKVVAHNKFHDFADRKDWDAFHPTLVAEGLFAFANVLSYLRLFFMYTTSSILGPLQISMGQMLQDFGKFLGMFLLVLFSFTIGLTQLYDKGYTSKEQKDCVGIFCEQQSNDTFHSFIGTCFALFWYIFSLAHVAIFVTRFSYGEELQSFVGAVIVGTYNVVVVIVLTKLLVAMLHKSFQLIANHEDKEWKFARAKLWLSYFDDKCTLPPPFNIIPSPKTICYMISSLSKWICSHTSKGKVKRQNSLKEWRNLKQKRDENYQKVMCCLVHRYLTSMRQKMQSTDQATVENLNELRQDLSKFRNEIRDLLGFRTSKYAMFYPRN
T1 sequence (Q9UBN4 whole entry): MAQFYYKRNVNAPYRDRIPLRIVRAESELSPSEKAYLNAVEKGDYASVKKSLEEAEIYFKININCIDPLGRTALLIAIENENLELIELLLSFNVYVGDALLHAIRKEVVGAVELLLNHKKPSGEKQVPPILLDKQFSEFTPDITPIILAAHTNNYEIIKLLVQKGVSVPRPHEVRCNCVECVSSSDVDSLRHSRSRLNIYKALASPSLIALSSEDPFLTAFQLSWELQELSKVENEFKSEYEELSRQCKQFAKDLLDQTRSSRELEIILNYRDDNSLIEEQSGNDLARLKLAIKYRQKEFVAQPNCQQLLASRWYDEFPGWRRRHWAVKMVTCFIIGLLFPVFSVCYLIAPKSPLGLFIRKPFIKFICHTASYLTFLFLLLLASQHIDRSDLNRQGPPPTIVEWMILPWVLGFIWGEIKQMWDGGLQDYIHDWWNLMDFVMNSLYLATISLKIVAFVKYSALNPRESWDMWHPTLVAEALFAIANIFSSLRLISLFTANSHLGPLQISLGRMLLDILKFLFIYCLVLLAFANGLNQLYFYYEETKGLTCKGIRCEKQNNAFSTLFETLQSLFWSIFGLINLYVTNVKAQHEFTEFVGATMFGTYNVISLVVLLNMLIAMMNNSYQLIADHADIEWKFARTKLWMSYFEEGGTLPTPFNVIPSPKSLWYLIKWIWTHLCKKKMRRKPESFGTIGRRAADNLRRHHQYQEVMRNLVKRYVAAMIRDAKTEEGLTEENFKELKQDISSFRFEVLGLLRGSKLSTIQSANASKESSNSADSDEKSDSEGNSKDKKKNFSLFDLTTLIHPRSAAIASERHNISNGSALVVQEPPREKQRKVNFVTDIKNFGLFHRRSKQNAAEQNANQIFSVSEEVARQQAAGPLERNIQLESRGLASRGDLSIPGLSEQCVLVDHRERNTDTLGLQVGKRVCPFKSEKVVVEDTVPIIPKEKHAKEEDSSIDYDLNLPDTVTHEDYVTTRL

[2] = test system: mCPP-induced anxiety; assay: Marble-burying test (MBT), mCPP-induced anxiety model; conditions: mCPP mice; single dose
Description: Seventy male 7–8-week-old C57BL/6 J mice from Jinan Pengyue Laboratory Animal Breeding Co., Ltd. (Jinan, China) were randomly and equally divided into seven groups for the experiment. After a 7-day acclimatization period, interventions were carried out for the indicated days. The Elevated Plus Maze (EPM) test was conducted on day 8, the Marble-Burying (MB) test on day 11, and the Open Field (OF) test on day 14. Mice were brought to the experimental site 2 h before the start of the experiment for acclimatization. […] Anxiety models were induced 30 min before the experiment using the following protocols: control group (NS, 10 mL/kg, i.p.), other groups (mCPP, 2 mg/kg, i.p.)[56].
Prior to the test, the animals were acclimated to the testing environment for 60 min. The test lasted for 30 min, and after each round, the bedding was replaced and the cage was disinfected. The number of marbles buried was recorded, with burying more than 50% of the marbles considered as the criteria for burying.

[3] = test system: mCPP-induced anxiety; assay: Open-field test (OFT), mCPP-induced anxiety model; conditions: single dose
[4] = molecular target: T2, TRPC3 homomer (Homo sapiens, UniProt Q13507); assay: Whole-cell patch-clamp, inhibition of TRPC3 homomer; assay type: cell-based
T2 construct: expressed in transfected cells
T2 sequence (Q13507 1-921): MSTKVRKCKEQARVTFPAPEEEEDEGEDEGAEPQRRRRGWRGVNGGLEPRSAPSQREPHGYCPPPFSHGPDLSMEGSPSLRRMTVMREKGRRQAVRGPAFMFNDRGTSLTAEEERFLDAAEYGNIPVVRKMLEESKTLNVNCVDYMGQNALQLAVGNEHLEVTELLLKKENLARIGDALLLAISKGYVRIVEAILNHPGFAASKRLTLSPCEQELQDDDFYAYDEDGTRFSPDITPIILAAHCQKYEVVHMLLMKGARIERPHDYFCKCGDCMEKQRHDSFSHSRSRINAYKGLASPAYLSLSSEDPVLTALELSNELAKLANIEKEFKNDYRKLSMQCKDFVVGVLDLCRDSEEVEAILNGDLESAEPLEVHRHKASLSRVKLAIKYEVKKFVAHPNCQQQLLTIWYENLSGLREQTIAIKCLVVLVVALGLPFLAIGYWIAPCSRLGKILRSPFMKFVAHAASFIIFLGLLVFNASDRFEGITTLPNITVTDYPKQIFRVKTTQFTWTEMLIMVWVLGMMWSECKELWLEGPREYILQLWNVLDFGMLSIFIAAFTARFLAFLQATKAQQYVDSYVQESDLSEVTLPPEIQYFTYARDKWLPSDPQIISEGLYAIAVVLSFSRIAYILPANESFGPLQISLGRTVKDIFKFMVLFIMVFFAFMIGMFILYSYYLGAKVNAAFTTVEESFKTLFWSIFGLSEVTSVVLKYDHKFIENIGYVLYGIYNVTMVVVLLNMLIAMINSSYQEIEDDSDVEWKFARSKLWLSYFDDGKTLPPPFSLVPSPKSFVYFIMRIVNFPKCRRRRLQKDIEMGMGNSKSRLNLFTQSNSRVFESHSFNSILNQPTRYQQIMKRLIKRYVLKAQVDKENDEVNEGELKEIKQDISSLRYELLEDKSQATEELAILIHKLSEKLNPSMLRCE
Text: Error bars represent the standard error of the mean (SEM, n = 6 independent
Error bars represent the standard error of the
110 mean (SEM, n = 5 independent cells).

[5] = molecular target: T3, TRPC7 homomer (Homo sapiens, UniProt Q9HCX4); assay: Whole-cell patch-clamp, inhibition of TRPC7 homomer; assay type: cell-based
T3 construct: expressed in transfected cells
T3 sequence (Q9HCX4 1-862): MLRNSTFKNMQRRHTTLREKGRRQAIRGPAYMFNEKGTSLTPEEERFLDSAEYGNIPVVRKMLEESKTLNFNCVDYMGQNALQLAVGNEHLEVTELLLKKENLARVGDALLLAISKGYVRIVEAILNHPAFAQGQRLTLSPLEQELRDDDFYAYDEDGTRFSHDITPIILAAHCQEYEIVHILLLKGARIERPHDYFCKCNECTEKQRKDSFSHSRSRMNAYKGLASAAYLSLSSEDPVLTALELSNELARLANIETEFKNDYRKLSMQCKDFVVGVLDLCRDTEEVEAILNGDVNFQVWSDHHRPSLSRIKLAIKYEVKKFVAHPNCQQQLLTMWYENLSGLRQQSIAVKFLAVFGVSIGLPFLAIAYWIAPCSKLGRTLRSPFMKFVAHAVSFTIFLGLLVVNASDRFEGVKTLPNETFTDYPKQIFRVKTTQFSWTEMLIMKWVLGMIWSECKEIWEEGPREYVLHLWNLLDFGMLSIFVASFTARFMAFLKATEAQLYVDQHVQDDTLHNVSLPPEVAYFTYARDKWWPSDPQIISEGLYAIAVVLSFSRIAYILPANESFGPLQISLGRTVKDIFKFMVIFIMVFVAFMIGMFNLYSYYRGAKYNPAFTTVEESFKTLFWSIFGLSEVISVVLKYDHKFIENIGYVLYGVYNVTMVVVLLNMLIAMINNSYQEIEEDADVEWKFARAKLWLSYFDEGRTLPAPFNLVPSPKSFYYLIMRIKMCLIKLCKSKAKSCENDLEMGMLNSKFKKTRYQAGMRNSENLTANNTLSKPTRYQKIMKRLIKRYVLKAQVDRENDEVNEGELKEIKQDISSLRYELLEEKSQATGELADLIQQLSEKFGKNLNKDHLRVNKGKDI
Text: Error bars represent the standard error of the mean (SEM, n = 5 independent cells).

[6] = molecular target: T4, TRPC1/5 heteromers (Homo sapiens, UniProt P48995+Q9UL62); assay: Whole-cell patch-clamp, inhibition of EA-activated TRPC1/5 heteromers; assay type: cell-based
T4 construct: wild type plasmids full-length hTRPC1 (WT) and full-length hTRPC5 (WT); expressed in transfected cells; host or cells: HEK293T
T4 sequence (P48995 whole entry): as the sequence (P48995 whole entry) above
T4 sequence (Q9UL62 whole entry): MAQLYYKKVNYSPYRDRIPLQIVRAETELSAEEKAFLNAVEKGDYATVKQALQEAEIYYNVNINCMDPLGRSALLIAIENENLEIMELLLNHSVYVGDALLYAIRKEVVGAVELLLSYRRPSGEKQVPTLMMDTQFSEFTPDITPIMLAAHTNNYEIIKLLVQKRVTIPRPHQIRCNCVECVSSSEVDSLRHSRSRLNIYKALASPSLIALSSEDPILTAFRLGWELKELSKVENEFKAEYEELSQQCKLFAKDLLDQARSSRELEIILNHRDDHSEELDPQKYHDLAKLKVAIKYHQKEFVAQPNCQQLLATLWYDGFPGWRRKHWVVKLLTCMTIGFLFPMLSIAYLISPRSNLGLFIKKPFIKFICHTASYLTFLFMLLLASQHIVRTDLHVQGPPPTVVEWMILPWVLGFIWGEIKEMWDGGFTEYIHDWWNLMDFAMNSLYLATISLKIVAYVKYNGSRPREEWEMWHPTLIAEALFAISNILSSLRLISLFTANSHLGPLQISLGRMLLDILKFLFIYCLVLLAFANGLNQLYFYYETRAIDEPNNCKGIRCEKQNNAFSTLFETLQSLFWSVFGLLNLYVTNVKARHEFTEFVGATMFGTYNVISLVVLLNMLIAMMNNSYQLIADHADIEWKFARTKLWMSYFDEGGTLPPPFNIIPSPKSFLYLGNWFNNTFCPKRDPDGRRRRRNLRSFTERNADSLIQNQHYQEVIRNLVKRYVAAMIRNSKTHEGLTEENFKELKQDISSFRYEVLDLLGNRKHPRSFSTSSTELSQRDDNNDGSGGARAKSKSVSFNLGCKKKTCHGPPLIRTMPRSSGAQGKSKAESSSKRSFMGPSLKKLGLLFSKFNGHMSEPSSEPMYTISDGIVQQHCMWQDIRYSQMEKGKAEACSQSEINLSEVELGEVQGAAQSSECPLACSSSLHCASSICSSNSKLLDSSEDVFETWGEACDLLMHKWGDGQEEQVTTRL
Text: The full-length hTRPC5 or truncated mTRPC5, and the full-length hTRPC1 constructs was respectively co-transfected in a plasmid ration 1:3 (w/w) into HEK293T cells (from the ATCC). As previously described, a mCherry was inserted into TRPC5 constructs and a GFP was inserted at the C terminus of TRPC1. Therefore, Cells with red and green fluorescence were selected for whole-cell patch recordings (HEKA EPC10 amplifier, […] software (https://www.heka.com/downloads/downloads_main.html#down_patchmaster)). A 1-s ramp protocol from −100 to +100 mV was applied at a frequency of 0.2 Hz. Signals were sampled at 50 kHz and filtered at 2.9 kHz. The pipette solution contained 130 mM CsCl, 1 mM MgCl2, 5.7 mM CaCl2, 10 mM EGTA, and 10 mM Hepes (calculated free Ca^2+, 200 nM), and the pH was titrated to 7.2 using CsOH[40]. The standard bath solution contained 140 mM NaCl, 5 mM KCl, 1 mM MgCl2, 2 mM CaCl2, 10 mM Hepes, and 10 mM D-glucose, and the pH was adjusted to 7.4 with NaOH (1 M). The recording chamber (150 μL) was perfused at a rate of ~2 mL/min. All recordings were performed at room temperature.

## CN(C)CCCCn1c(=O)c2c(nc(Oc3cccc(Cl)c3)n2Cc2ccc(Cl)cc2)n(C)c1=O [H08]
[1]
  IC50: 6.68 nM and 6.7 nM
[2]
  MBT number of marbles buried: reducing the number of marbles buried
[3]; mCPP mice
  OFT central zone entries and time in central zone: enhancing numbers of central zone entries and time spent in the central zone
[3]; mCPP-induced anxiety-like mice
  OFT total distance traveled: no significant effect
[4]
  IC50: > 10000 nM
[4]; 10 μM
  inhibition of TRPC3: no more than 40%
[5]
  IC50: > 10000 nM
[5]; 10 μM
  inhibition of TRPC7: no more than 40%
[6]; combined fitting with additional 0.01 nM and 0.001 nM points (rebuttal)
  Hill coefficient, TRPC1/C5 heteromer: approximately 0.33
[6]; whole-cell patch-clamp, read-out: IC50, TRPC1/C5
  IC50: 0.239 nM and 0.2 nM
